Laboratory results: patent publication US20260274800A1, “Heterocyclic Compound And Use Thereof In Medicine” (Kangbaida (Sichuan) Biotechnology Co., Ltd., priority 2023, published 2026)

biological target: T1, MRGPRX4 (Homo sapiens, UniProt Q96LA9); test: Detection of MRGPRX4 activity (IP1 HTRF, deoxycholic acid stimulation); type: cell-based; conditions: HEK-293 cells stably expressing MRGPRX4; compound 45 min, then deoxycholic acid 45 min; IP1 content by HTRF
T1 construct: expressed in transfected cells
Procedure: HEK-293 cells stably expressing MRGPRX4 were cultured in a DMEM medium containing 10% of FBS and 1% of a double antibody under the culture conditions of 37° C. and 5% CO2. Cells in the exponential growth phase were collected and inoculated into a 384-well plate at an inoculation density of 2×10^4 cells/well, with 10 μL per well. 2 μL/well of a gradient-diluted compound was added and co-incubated with the cells for 45 min. After the incubation was complete, 2 μL/well of deoxycholic acid (MCE, Cat: #HY-N0593) was added to continue the incubation for 45 min. After the incubation was complete, IP-one Gq kit (PE, Cat: #62IPAPEB) was used to detect the content of IP1 according to the instructions. HTRF values were substituted into GraphPad 8.0, and IC50 was calculated by fitting.

T1 sequence (Q96LA9 whole entry): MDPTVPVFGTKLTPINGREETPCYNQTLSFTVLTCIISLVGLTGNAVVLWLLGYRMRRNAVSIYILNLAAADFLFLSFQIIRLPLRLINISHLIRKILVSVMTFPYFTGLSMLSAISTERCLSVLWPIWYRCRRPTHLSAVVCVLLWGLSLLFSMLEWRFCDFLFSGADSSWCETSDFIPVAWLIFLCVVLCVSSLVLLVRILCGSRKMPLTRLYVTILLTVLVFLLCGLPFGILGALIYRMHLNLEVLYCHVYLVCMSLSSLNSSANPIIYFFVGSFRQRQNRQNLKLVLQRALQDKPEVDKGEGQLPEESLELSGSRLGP

SMILES	IC50
O=C(O)c1cccc(Cn2ccc3cc(Cl)cc(Cl)c32)c1F [Compound 5, 3-((5,7-Dichloro-1H-indol-1-yl)methyl)-2-fluorobenzoic acid]	≤ 200 nM
O=C(O)c1cccc(Cn2ncc3c(F)c(Cl)ccc32)c1F [Compound 48, 3-((5-Chloro-4-fluoro-1H-indazol-1-yl)methyl)-2-fluorobenzoic acid]	200 to 500 nM
O=C(O)c1cccc(Cn2ncc3cc(OC(F)(F)F)cc(Br)c32)c1F [Compound 27, 3-((7-Bromo-5-(trifluoromethoxy)-1H-indazol-1-yl)methyl)-2-fluorobenzoic acid]	≤ 200 nM
Cc1cc(C(F)(F)F)cc2ccn(Cc3cccc(C(=O)O)c3F)c12 [Compound 16, 3-((7-Methyl-5-(trifluoromethyl)-1H-indol-1-yl)methyl)-2-fluorobenzoic acid]	≤ 200 nM
O=C(O)c1cc(Cn2ncc3cc(C(F)(F)F)cc(Br)c32)ccc1F [Compound 41, 5-((7-Bromo-5-(trifluoromethyl)-1H-indazol-1-yl)methyl)-2-fluorobenzoic acid]	500 to 1000 nM
N#Cc1ccc2c(ccn2Cc2cccc(C(=O)O)c2F)c1Cl [Compound 74, 3-((4-Chloro-5-cyano-1H-indol-1-yl)methyl)-2-fluorobenzoic acid]	≤ 200 nM
O=C(O)c1cccc(Cn2ncc3cc(Cl)c(Cl)c(Cl)c32)c1F [Compound 28, 2-Fluoro-3-((5,6,7-trichloro-1H-indazol-1-yl)methyl)benzoic acid]	≤ 200 nM
Cc1cc(OC(F)(F)F)cc2ccn(Cc3cccc(C(=O)O)c3F)c12 [Compound 87, 2-Fluoro-3-((7-methyl-5-(trifluoromethoxy)-1H-indol-1-yl)methyl)benzoic acid]	≤ 200 nM
O=C(O)c1cccc(Cn2ccc3cc(Cl)c(Cl)cc32)c1F [Compound 6, 3-((5,6-Dichloro-1H-indol-1-yl)methyl)-2-fluorobenzoic acid]	≤ 200 nM
Cc1ccc2c(ccn2Cc2cccc(C(=O)O)c2F)c1Cl [Compound 62, 3-((4-Chloro-5-methyl-1H-indol-1-yl)methyl)-2-fluorobenzoic acid]	≤ 200 nM
O=C(O)c1cccc(Cn2ccc3c(Cl)ccc(Cl)c32)c1F [Compound 80, 3-((4,7-Dichloro-1H-indol-1-yl)methyl)-2-fluorobenzoic acid]	500 to 1000 nM
CC(c1cccc(C(=O)O)c1F)n1ncc2cc(Cl)c(Cl)c(Cl)c21 (stereo not drawn) [Compound 39, 2-Fluoro-3-(1-(5,6,7-trichloro-1H-indazol-1-yl)ethyl)benzoic acid]	≤ 200 nM
O=C(O)c1cccc(Cn2ncc3cc(Cl)c(F)c(Cl)c32)c1F [Compound 51, 3-((5,7-Dichloro-6-fluoro-1H-indazol-1-yl)methyl)-2-fluorobenzoic acid]	≤ 200 nM
O=C(O)c1cccc(Cn2ncc3cc(Cl)cc(Br)c32)c1F [Compound 36, 3-((7-Bromo-5-chloro-1H-indazol-1-yl)methyl)-2-fluorobenzoic acid]	≤ 200 nM
O=C(O)c1cccc(Cn2ccc3cc(C(F)(F)F)cc(Br)c32)c1F [Compound 15, 3-((7-Bromo-5-(trifluoromethyl)-1H-indol-1-yl)methyl)-2-fluorobenzoic acid]	≤ 200 nM
O=C(O)c1cccc(Cn2ncc3cc(C(F)(F)F)cc(Br)c32)c1F [Compound 22, 3-((7-Bromo-5-(trifluoromethyl)-1H-indazol-1-yl)methyl)-2-fluorobenzoic acid]	200 to 500 nM
O=C(O)c1cccc(Cn2ncc3cc(Cl)cc(Cl)c32)c1F [Compound 30, 3-((5,7-Dichloro-1H-indazol-1-yl)methyl)-2-fluorobenzoic acid]	≤ 200 nM
O=C(O)c1cccc(Cn2ccc3c(F)c(Cl)ccc32)c1F [Compound 66, 3-((5-Chloro-4-fluoro-1H-indol-1-yl)methyl)-2-fluorobenzoic acid]	≤ 200 nM
O=C(O)c1cccc(Cn2ccc3c(Cl)cc(Cl)cc32)c1F [Compound 79, 3-((4,6-Dichloro-1H-indol-1-yl)methyl)-2-fluorobenzoic acid]	≤ 200 nM
O=C(O)c1cccc(Cn2ccc3cc(Cl)cc(Cl)c32)c1Cl [Compound 82, 2-Chloro-3-((5,7-dichloro-1H-indol-1-yl)methyl)benzoic acid]	200 to 500 nM
O=C(O)c1cccc(Cn2ccc3c(Cl)c(Cl)ccc32)c1F [Compound 81, 3-((4,5-Dichloro-1H-indol-1-yl)methyl)-2-fluorobenzoic acid]	≤ 200 nM

test system: not listed separately; test: Study of pharmacokinetics in mice in vivo; parameters: species or system C57BL/6 mice; conditions: male, C57BL/6, mouse, po (intragastric), 50 mg/kg, plasma
Procedure: An appropriate amount of the test substance was weighed, and the test substance was prepared into a 2 mg/mL transparent clear solution using 5% DMSO+5% HS-15 (Solutol HS-15)+90% D5W (5% glucose) for intravenous administration. The test substance was prepared into a 5 mg/mL uniform suspension using 5% DMSO+5% HS-15+90% PBS for intragastric administration.
18 healthy male C57BL/6 mice (GemPharmatech Co., Ltd., SPF grade) were taken. The intravenous administration group and the intragastric administration group respectively had 9 animals. At each time point, blood samples were taken from 3 animals via an orbital microsampling method, with a sampling volume of approximately 0.04 mL per animal per time point.
For intravenous administration of the test substance (10 mg/kg), blood samples were taken before administration and at 5 min, 15 min, 0.5 h, 1 h, 2 h, 4 h, 8 h, and 24 h after administration, and for intragastric administration of the test substance (50 mg/kg), blood samples were taken before administration and at 15 min, 0.5 h, 1 h, 2 h, 4 h, 8 h, and 24 h after administration. After anticoagulation with EDTA-K2, the blood samples were centrifuged at 6000 g at 4° C. for 5 min to separate plasma, and all plasma samples were stored at −70° C. for testing. The drug concentration of the test substance in plasma was determined by LC-MS/MS method (with tolbutamide as an internal standard), and the main pharmacokinetic parameters were calculated by Winnolin 8.3 non-compartment model.

SMILES	AUC	Cmax	half-life
O=C(O)c1cccc(Cn2ccc3cc(Cl)cc(Cl)c32)c1F [Compound 5, 3-((5,7-Dichloro-1H-indol-1-yl)methyl)-2-fluorobenzoic acid]	725 µg·h/mL	121 µg/mL	3.49 h
Cc1cc(C(F)(F)F)cc2ccn(Cc3cccc(C(=O)O)c3F)c12 [Compound 16, 3-((7-Methyl-5-(trifluoromethyl)-1H-indol-1-yl)methyl)-2-fluorobenzoic acid]	612 µg·h/mL	93 µg/mL	3.39 h
O=C(O)c1cccc(Cn2ncc3cc(Cl)c(Cl)c(Cl)c32)c1F [Compound 28, 2-Fluoro-3-((5,6,7-trichloro-1H-indazol-1-yl)methyl)benzoic acid]	1580 µg·h/mL	132 µg/mL	9.81 h
